Consider 3 compounds from PubChem BioAssay AID2060497 (Molecular Pharmacology Branch, DTP, NCI, 2025).
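Further: spheroids exposed to compounds for one week before readout.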
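Wherever viability, T/C is given: percent viability relative to DMSO vehicle wells taken as 100%.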

In one test the test system is 317291-083-R-J1-PDC complex spheroids, viability. Put plainly: Anticancer human tumor 317291-083-R-J1-PDC patient-derived soft tissue sarcoma cell line growth inhibition [GQUAD]. The settings on record: curve of first compound; second compound 0.0316 µM. The method, boiled down:
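Tumor cells were grown as complex spheroids with HUVEC endothelial cells and mesenchymal stem cells as stroma. G-quadruplex stabilizers were combined with targeted agents over half-log dilutions from near the clinical Cmax, or from 10 microM.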
Turning to `COc1ncnc(C2CC2)c1-c1ncc2cnn(Cc3ccc(-c4nc(C(F)(F)F)cn4C(C)C)cc3)c2n1` + Cc1[nH]c2ccc(F)cc2c1-c1nc2c3cccnc3c3ncccc3c2[nH]1, the IC50 (usually the point on the concentration scale where inhibition reaches its midpoint) is over 10 µM.
Consider `CCCS(=O)(=O)Nc1ccc(F)c(C(=O)c2c[nH]c3ncc(-c4ccc(Cl)cc4)cc23)c1F` + Cc1cnc(CNC(=O)c2c(=O)c3ccc(N4CCCN(C)CC4)nc3n3c2sc2ccccc23)cn1, for which the IC50 turned out to be 4.02 µM.
On to `O=C(c1cc(Cc2n[nH]c(=O)c3ccccc23)ccc1F)N1CCN(C(=O)C2CC2)CC1` + Cc1[nH]c2ccc(F)cc2c1-c1nc2c3cccnc3c3ncccc3c2[nH]1, for which the IC50 is over 10 µM.

Still in this test, the particulars now being: curve of first compound; second compound 0.1 µM.
Regarding `COc1ncnc(C2CC2)c1-c1ncc2cnn(Cc3ccc(-c4nc(C(F)(F)F)cn4C(C)C)cc3)c2n1` + Cc1[nH]c2ccc(F)cc2c1-c1nc2c3cccnc3c3ncccc3c2[nH]1, the IC50 was over 10 µM.
With `CCCS(=O)(=O)Nc1ccc(F)c(C(=O)c2c[nH]c3ncc(-c4ccc(Cl)cc4)cc23)c1F` + Cc1cnc(CNC(=O)c2c(=O)c3ccc(N4CCCN(C)CC4)nc3n3c2sc2ccccc23)cn1, the IC50 came to 3.92 µM.
As to `O=C(c1cc(Cc2n[nH]c(=O)c3ccccc23)ccc1F)N1CCN(C(=O)C2CC2)CC1` + Cc1[nH]c2ccc(F)cc2c1-c1nc2c3cccnc3c3ncccc3c2[nH]1, the IC50 is over 10 µM.

Still in this test, the particulars now being: curve of first compound; second compound 0.316 µM.
On to `COc1ncnc(C2CC2)c1-c1ncc2cnn(Cc3ccc(-c4nc(C(F)(F)F)cn4C(C)C)cc3)c2n1` + Cc1[nH]c2ccc(F)cc2c1-c1nc2c3cccnc3c3ncccc3c2[nH]1, for which the IC50 was determined as 0.2 µM.
Same read-out and setting: to `CCCS(=O)(=O)Nc1ccc(F)c(C(=O)c2c[nH]c3ncc(-c4ccc(Cl)cc4)cc23)c1F` + Cc1cnc(CNC(=O)c2c(=O)c3ccc(N4CCCN(C)CC4)nc3n3c2sc2ccccc23)cn1 belongs 0.179 µM; to `O=C(c1cc(Cc2n[nH]c(=O)c3ccccc23)ccc1F)N1CCN(C(=O)C2CC2)CC1` + Cc1[nH]c2ccc(F)cc2c1-c1nc2c3cccnc3c3ncccc3c2[nH]1, over 10 µM.

The test is the same for the next values; noted with them: curve of first compound; second compound 1 µM.
As for `COc1ncnc(C2CC2)c1-c1ncc2cnn(Cc3ccc(-c4nc(C(F)(F)F)cn4C(C)C)cc3)c2n1` + Cc1[nH]c2ccc(F)cc2c1-c1nc2c3cccnc3c3ncccc3c2[nH]1, the IC50 was under 0.0316 µM.
With `CCCS(=O)(=O)Nc1ccc(F)c(C(=O)c2c[nH]c3ncc(-c4ccc(Cl)cc4)cc23)c1F` + Cc1cnc(CNC(=O)c2c(=O)c3ccc(N4CCCN(C)CC4)nc3n3c2sc2ccccc23)cn1, the IC50 was under 0.0316 µM.
Consider `O=C(c1cc(Cc2n[nH]c(=O)c3ccccc23)ccc1F)N1CCN(C(=O)C2CC2)CC1` + Cc1[nH]c2ccc(F)cc2c1-c1nc2c3cccnc3c3ncccc3c2[nH]1, for which the IC50 was over 10 µM.

Staying with this test, now noted: curve of first compound; second compound 3.16 µM.
With `COc1ncnc(C2CC2)c1-c1ncc2cnn(Cc3ccc(-c4nc(C(F)(F)F)cn4C(C)C)cc3)c2n1` + Cc1[nH]c2ccc(F)cc2c1-c1nc2c3cccnc3c3ncccc3c2[nH]1, the IC50 is under 0.0316 µM.
With `CCCS(=O)(=O)Nc1ccc(F)c(C(=O)c2c[nH]c3ncc(-c4ccc(Cl)cc4)cc23)c1F` + Cc1cnc(CNC(=O)c2c(=O)c3ccc(N4CCCN(C)CC4)nc3n3c2sc2ccccc23)cn1, the IC50 was under 0.0316 µM.
On to `O=C(c1cc(Cc2n[nH]c(=O)c3ccccc23)ccc1F)N1CCN(C(=O)C2CC2)CC1` + Cc1[nH]c2ccc(F)cc2c1-c1nc2c3cccnc3c3ncccc3c2[nH]1, for which the IC50 worked out at 8.8 µM.

The test is the same for the next values; noted with them: curve of first compound; second compound 10 µM.
As for `COc1ncnc(C2CC2)c1-c1ncc2cnn(Cc3ccc(-c4nc(C(F)(F)F)cn4C(C)C)cc3)c2n1` + Cc1[nH]c2ccc(F)cc2c1-c1nc2c3cccnc3c3ncccc3c2[nH]1, the IC50 was under 0.0316 µM.
`CCCS(=O)(=O)Nc1ccc(F)c(C(=O)c2c[nH]c3ncc(-c4ccc(Cl)cc4)cc23)c1F` + Cc1cnc(CNC(=O)c2c(=O)c3ccc(N4CCCN(C)CC4)nc3n3c2sc2ccccc23)cn1: the IC50 is under 0.0316 µM.
For the compound `O=C(c1cc(Cc2n[nH]c(=O)c3ccccc23)ccc1F)N1CCN(C(=O)C2CC2)CC1` + Cc1[nH]c2ccc(F)cc2c1-c1nc2c3cccnc3c3ncccc3c2[nH]1, the IC50 was over 10 µM.

The test is the same for the next values; noted with them: second compound 0.0316 µM; first compound 0.0316 µM; stronger effect = lower value.
`COc1ncnc(C2CC2)c1-c1ncc2cnn(Cc3ccc(-c4nc(C(F)(F)F)cn4C(C)C)cc3)c2n1` + Cc1[nH]c2ccc(F)cc2c1-c1nc2c3cccnc3c3ncccc3c2[nH]1: the viability, T/C (commonly the result in the treated group divided by that in the control group, in per cent) is 110%.
With `CCCS(=O)(=O)Nc1ccc(F)c(C(=O)c2c[nH]c3ncc(-c4ccc(Cl)cc4)cc23)c1F` + Cc1cnc(CNC(=O)c2c(=O)c3ccc(N4CCCN(C)CC4)nc3n3c2sc2ccccc23)cn1, the viability, T/C is 89.2%.
On to `O=C(c1cc(Cc2n[nH]c(=O)c3ccccc23)ccc1F)N1CCN(C(=O)C2CC2)CC1` + Cc1[nH]c2ccc(F)cc2c1-c1nc2c3cccnc3c3ncccc3c2[nH]1, for which the viability, T/C is 97.2%.

Staying with this test, now noted: second compound 0.0316 µM; first compound 0.1 µM; stronger effect = lower value.
Turning to `COc1ncnc(C2CC2)c1-c1ncc2cnn(Cc3ccc(-c4nc(C(F)(F)F)cn4C(C)C)cc3)c2n1` + Cc1[nH]c2ccc(F)cc2c1-c1nc2c3cccnc3c3ncccc3c2[nH]1, the viability, T/C is 77.8%.
For `CCCS(=O)(=O)Nc1ccc(F)c(C(=O)c2c[nH]c3ncc(-c4ccc(Cl)cc4)cc23)c1F` + Cc1cnc(CNC(=O)c2c(=O)c3ccc(N4CCCN(C)CC4)nc3n3c2sc2ccccc23)cn1, the viability, T/C was 100%.
In the case of `O=C(c1cc(Cc2n[nH]c(=O)c3ccccc23)ccc1F)N1CCN(C(=O)C2CC2)CC1` + Cc1[nH]c2ccc(F)cc2c1-c1nc2c3cccnc3c3ncccc3c2[nH]1, the viability, T/C was 92.2%.

Still in this test, the particulars now being: second compound 0.0316 µM; first compound 0.316 µM; stronger effect = lower value.
Regarding `COc1ncnc(C2CC2)c1-c1ncc2cnn(Cc3ccc(-c4nc(C(F)(F)F)cn4C(C)C)cc3)c2n1` + Cc1[nH]c2ccc(F)cc2c1-c1nc2c3cccnc3c3ncccc3c2[nH]1, the viability, T/C is 84.5%.
Same read-out and setting: as for `CCCS(=O)(=O)Nc1ccc(F)c(C(=O)c2c[nH]c3ncc(-c4ccc(Cl)cc4)cc23)c1F` + Cc1cnc(CNC(=O)c2c(=O)c3ccc(N4CCCN(C)CC4)nc3n3c2sc2ccccc23)cn1, the figure is 99.8%.
In the case of `O=C(c1cc(Cc2n[nH]c(=O)c3ccccc23)ccc1F)N1CCN(C(=O)C2CC2)CC1` + Cc1[nH]c2ccc(F)cc2c1-c1nc2c3cccnc3c3ncccc3c2[nH]1, the viability, T/C was 91.8%.

The test is the same for the next values; noted with them: second compound 0.0316 µM; first compound 1 µM; stronger effect = lower value.
Regarding `COc1ncnc(C2CC2)c1-c1ncc2cnn(Cc3ccc(-c4nc(C(F)(F)F)cn4C(C)C)cc3)c2n1` + Cc1[nH]c2ccc(F)cc2c1-c1nc2c3cccnc3c3ncccc3c2[nH]1, the viability, T/C is 72.2%.
The same measure, in the same setting: to `CCCS(=O)(=O)Nc1ccc(F)c(C(=O)c2c[nH]c3ncc(-c4ccc(Cl)cc4)cc23)c1F` + Cc1cnc(CNC(=O)c2c(=O)c3ccc(N4CCCN(C)CC4)nc3n3c2sc2ccccc23)cn1 belongs 91.3%.
In the case of `O=C(c1cc(Cc2n[nH]c(=O)c3ccccc23)ccc1F)N1CCN(C(=O)C2CC2)CC1` + Cc1[nH]c2ccc(F)cc2c1-c1nc2c3cccnc3c3ncccc3c2[nH]1, the viability, T/C is 91.6%.

Staying with this test, now noted: second compound 0.0316 µM; first compound 3.16 µM; stronger effect = lower value.
As to `COc1ncnc(C2CC2)c1-c1ncc2cnn(Cc3ccc(-c4nc(C(F)(F)F)cn4C(C)C)cc3)c2n1` + Cc1[nH]c2ccc(F)cc2c1-c1nc2c3cccnc3c3ncccc3c2[nH]1, the viability, T/C was 64.3%.
